pKi: −log10 of the molar value. Values joined by “and” are separate entries in the source; they are usually repeats but may differ in a detail not shown here. Equal entries are not always repeated. Structures can show the parent of a compound that is named as a salt. Where two headings read alike, the source gives them in different places.
Assays:
rat 5HT7 receptor = target: T1, rat 5HT7 receptor (Rattus norvegicus, UniProt P32305); test: Binding of [3H] LSD to rat 5HT7 receptor expressed in CHO cells
T1 construct: expressed in transfected cells; host or cells: CHO cells
Protocol: Binding of 2.0 nM [^3 H] LSD to a rat 5HT7 receptor expressed in CHO cells was measured for 60 minutes at 37° C. in 50 mM Tris-HCl buffer, pH 7.4, containing 10 mM MgCl2 and 0.5 mM EDTA. The reaction was terminated by rapid vacuum filtration onto glass fiber filters pretreated with 0.1% polyethyleneimine. Binding studies were made in duplicate in the absence of the drug and in the presence of between 6 and 8 concentrations of epinastine between 3 nM and 10 μM. Radioactivity trapped on the filters in the presence of each drug concentration was measured and compared with control values in order to ascertain interaction of the drug with the cloned 5-HT7 receptor site. Non-specific binding was determined in the presence of 5-carboxamidotryptamine (5-CT). The IC50 for the displacement of radiolabelled ligand was determined by graphical extrapolation and Ki values were calculated after correction for the radioligand occupancy shift by the Cheng and Prusoff equation (see Biochem. Pharmacol. 22, (1973): 3099-3108). Three experiments were carried out.

[1] = system: rats of the strain Chbb:THOM; test: animal or person; settings: for Mean value of pain threshold: 3 hours after yeast
Protocol: The method of Randall and Selitto was modified through use of the Analgesia meter by Basile of Milan.
Groups of 10 fasted rats of the strain Chbb:THOM (weight 110-140 g, 5 male 5 female) were dosed orally with it Natrosol 250 HX, 1 ml/100 g body weight, containing 0, 0.3, 1.0, 3.0 or 10 mg/kg epinastine (racemic mixture). 1 hour later the rats were injected subplantar with a suspension of yeast cells in a volume 0.1 ml into the right hind paw. 3 hours after injection of the yeast suspension, the pain threshold was determined by increasing the pressure on the inflamed paw until a sign of pain was produced. From the pain threshold measured after the different doses of the epinastine, linear regression analysis was used to determine an ED50.

Male Wistar rats = system: Male Wistar rats
Protocol: Male Wistar rats weighing 175-190 g were anaesthetised with nembutal 50 mg/kg i.p. and the jugular vein was cannulated for injection of drugs. The animals were placed in a stereotaxic frame. Symmetrical boreholes were drilled 3.0 mm laterally and 3.2 mm posteriorly from bregma and the electrodes were lowered 9.5 mm from dura mater. The test compound epinastine or control solution were administered intravenously 10 min prior to electrical stimulation of the right trigeminal ganglion (5 min; 2.0 mA, 5 Hz, 5 ms duration and Evans blue (30 mg/kg i.v.), was given 5 min prior to electrical stimulation as a marker of plasma protein extravasation. 15 minutes after the end of the stimulation period the animals were perfused with 50 ml saline via the left cardiac ventricle to remove intravascular Evans blue. The dura mater was removed, blotted dry and weighed. Tissue Evans blue was extracted in 0.3 ml formamide at 50° C. for 24 h. Dye concentrations were measured with a spectrophotometer at 620 nm wavelength, interpolated on a standard curve and expressed as ng Evans blue content per mg tissue weight.
Extravasation was expressed as the quotient calculated by dividing the Evan's blue content of the stimulated side by the Evan's blue content of the unstimulated side. Results are expressed as means.

[2] = individual values of the three experiments, read-out: Measured Ki values
[3] = mean of three experiments, 2.0 nM [3H] LSD, 60 minutes at 37° C., read-out: mean Ki value

T1 sequence (P32305 whole entry): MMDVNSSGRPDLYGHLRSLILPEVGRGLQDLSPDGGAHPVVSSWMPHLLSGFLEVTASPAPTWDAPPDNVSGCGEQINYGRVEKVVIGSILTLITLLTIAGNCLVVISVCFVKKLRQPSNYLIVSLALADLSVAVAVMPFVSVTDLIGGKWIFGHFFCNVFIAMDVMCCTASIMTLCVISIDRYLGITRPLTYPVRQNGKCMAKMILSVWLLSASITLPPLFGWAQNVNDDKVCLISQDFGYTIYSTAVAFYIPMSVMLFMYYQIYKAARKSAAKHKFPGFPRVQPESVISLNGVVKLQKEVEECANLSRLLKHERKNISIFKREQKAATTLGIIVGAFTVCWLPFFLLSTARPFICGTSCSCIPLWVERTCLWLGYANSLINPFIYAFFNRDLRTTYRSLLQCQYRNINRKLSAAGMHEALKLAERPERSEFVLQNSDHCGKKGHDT

For `COc1ccc(CN(CCN(C)C)c2ccccn2)cc1` [Mepyramine], the pKi (rat 5HT7 receptor; [2]) was 5.58 and 6.13 and 5.88.
`CN1CCC(=C2c3ccccc3CC(=O)c3sccc32)CC1` [Ketotifen] was tested, and the pKi (rat 5HT7 receptor; [2]) was 6.39 and 6.24 and 6.48.
In the case of `NC1=NCC2c3ccccc3Cc3ccccc3N12` (single isomer, unassigned; (-)) [Epinastine (-) Enantiomer, (-)-3-Amino-9,13b-dihydro-1H-dibenz-[c,f]-imidazo[1,5a]-azepine-hydrochloride], the pKi (rat 5HT7 receptor; [2]) was 6.81 and 6.69 and 6.68 and the pKi (rat 5HT7 receptor; [3]) was 6.72.
In the case of `NC1=NCC2c3ccccc3Cc3ccccc3N12` (single isomer, unassigned; (+)) [Epinastine (+) Enantiomer, (+)-3-Amino-9,13b-dihydro-1H-dibenz-[c,f]-imidazo[1,5a]-azepine-hydrochloride], the pKi (rat 5HT7 receptor; [2]) was 7.35 and 7.74 and 7.66 and the pKi (rat 5HT7 receptor; [3]) was 7.55.
`NC1=NCC2c3ccccc3Cc3ccccc3N12` (racemic) [Epinastine, 3-amino-9,13b-dihydro-1H-dibenz[c,f]-imidazo[5,1-a]azepine hydrochloride] was tested, and the “% Increase of pain threshold” value ([1]; 0.3 mg/kg p.o.) was 9.6%, the “Mean value of pain threshold” value ([1]; 0.3 mg/kg p.o.) was 164.8 g/hind paw and the “% Increase of pain threshold” value ([1]; 1.0 mg/kg p.o.) was 56.4%. For the same compound, the “Mean value of pain threshold” value ([1]; 1.0 mg/kg p.o.) was 235.2 g/hind paw, the “% Increase of pain threshold” value ([1]; 3.0 mg/kg p.o.) was 72.5% and the “Mean value of pain threshold” value ([1]; 3.0 mg/kg p.o.) was 259.4 g/hind paw. For the same compound, the “% Increase of pain threshold” value ([1]; 10.0 mg/kg p.o.) was 81.4%, the “Mean value of pain threshold” value ([1]; 10.0 mg/kg p.o.) was 272.8 g/hind paw and the ED50 ([1]; Rattus norvegicus, po, read-out: ED50, dose required to increase the pain threshold by 50%) was 1.1 mg/kg. The “pain threshold in inflamed rat paw” value ([1]; result in words) was “increased the pain threshold”, the pKi (rat 5HT7 receptor; Measured Ki values, individual values of the three experiments) was 7.57 and 7.39 and 7.52 and the pKi (rat 5HT7 receptor; mean Ki value, mean of three experiments, 2.0 nM [3H] LSD, 60 minutes at 37° C.) was 7.48. For the same compound, the “Quotient stimulated/non-stimulated side, mean” value (Male Wistar rats; epinastine 10 μg/kg i.v., mean of 7 animals (control mean 1.25)) was 0.98 and the “Evans blue extravasation induced by electrical stimulation of the trigeminal ganglion” value (Male Wistar rats; result in words) was “significantly reduced”.
